How the values were obtained:
Type in all cases: cell-based
[1] = test system: A2058 (human melanoma cells); assay: A2058 cell scratch assay (cell migration inhibition); conditions: A2058 scratch area 0 h vs 24 h, 10 μM LPA, read-out: Cell migration inhibition rate
Experimental: The activity of the compounds disclosed herein at the cell level in vitro is evaluated by A2058 (human melanoma cells, Beina Bio, BNCC341099) cell scratch assay. The inhibitory activity of the compounds against LPAR1 can be reflected by inhibition of cell scratch healing.
A2058 cells in a T75 cm^2 cell culture flask were digested and gently pipetted into single cells, adjusted to a cell density of 4×10^5 cells/mL, and then seeded into a 24-well plate. After the cell confluence reached 80%, the cell culture plate was taken out and the original medium was discarded. Serum-free medium was then added, and the cells were starved overnight in an incubator (37° C., 5% CO2). The cell culture plate was then taken out, and cell scratches were made along the diameter of the wells using a 200 μL pipette tip. The cell culture plate was then added with 500 μL of serum-free medium and then shaken gently to wash away the residual cells on the scratched surface, and this was repeated twice. The medium was discarded and 500 μL of 1% FBS medium containing the compound was then added, and the mixture was incubated at 37° C. for 30 min. […] Olympus CKX53 was used to observe the scratches, and MShot image analysis system was used to take pictures and measure the scratch area at 0 h. Then the cell culture plate was incubated in the incubator (37° C., 5% CO2). 24 h later, the scratches were observed again with Olympus CKX53, and MShot image analysis system was used to take pictures and measure the scratch area at 24 h. Cell migration inhibition rate was calculated according to the following formula: […]

[2] = target: T1, hLPAR1 (human lysophosphatidic acid receptor 1) (Homo sapiens, UniProt Q92633); assay: FLIPR intracellular calcium assay, hLPAR1 expressed in CHO-K1 cells; conditions: antagonism of 1 μM LPA-induced calcium increase, CHO-K1 cells expressing hLPAR1; read-out: LPAR1 IC50
T1 construct: expressed in transfected cells
Experimental: The antagonist property of the compounds disclosed herein was determined using the FLIPR (fluorescence imaging plate reader) method, wherein the compounds are inhibitors for the intracellular calcium increase induced by activation of hLPAR1 (human lysophosphatidic acid receptor 1, accession No. NM_001401.4) expressed in CHO-K1 cells (Chinese hamster ovary cells K1, ATCC).
CHO-K1 cells stably expressing hLPAR1 were cultured in F-12 medium containing 10% FBS (fetal bovine serum, Gibco, 10099-141), 1% penicillin-streptomycin (Gibco, 15140-122) and 0.4 mg/mL hygromycin B (Gibco, 10687010) in a cell incubator (37° C., […]). During 18-24 h prior to the FLIPR experiment, cells at 250,000 cells/mL were seeded into a 96-well plate (25,000 cells/well) and incubated overnight in the cell incubator. On the day of the experiment, the medium was discarded and the cells were washed in a FLIPR buffer (0.3 mL of probenecid (Thermo, P36400), 0.6 mL of 1 M HEPES (Invitrogen, 15630080) and 29.1 mL of HBSS (Invitrogen, 14065056) per 30 mL of buffer). Each well was added with 75 μL of 1 mM Fluo-4 AM fluorescent dye (Thermo, F14202) and then the cells were subjected to dye-loading incubation at 37° C. for 1.0 h. The 96-well plate was then washed once with buffer, added with a buffer containing a test compound or vehicle at 50 μL per well and then incubated for 30 min at room temperature. The cell plate was then placed in the FLIPR for baseline fluorescence measurements (excitation at 485 nm and emission at 525-535 nm). An agonist (oleoyl-L-α-lysophosphatidic acid sodium salt (Sigma, L7260) at a final concentration of 1 μM) or a vehicle (ultrapure water) was then added at 50 μL/well, fluorescence values were measured for 2 min at 1-second intervals, and finally the output fluorescence counts were analyzed.

[3] = In vitro cytotoxicity assay in HepG2 cells, CCK-8 method; conditions: human, 48 h incubation
Experimental: In vitro cytotoxicity assay for the compounds disclosed herein was performed in HepG2 cells using the CCK-8 method. HepG2 cells (Beina Bio) in the logarithmic growth phase were collected, the concentration of cell suspension was adjusted, and then the cells were plated on a 96-well cell culture plate at 50,000 cells/well. • The cells were then incubated overnight in a cell incubator (5% CO2, 37° C.), and after 80-90% cell confluence was achieved, test compounds or vehicle (DMSO) at various concentration gradients were added after medium change. The resulting mixture was incubated in the cell incubator (5% CO2, 37° C.) for 48 h. After the treatment, the medium in the plate was discarded. The plate was washed twice with PBS, added with CCK-8 working solution (Beyotime) at 100 μL per well, and then incubated at 37° C. for 1.5 h in the dark. Absorbance at OD450nm was measured for each well on a microplate reader, and CC50 value of each compound was analyzed and calculated.

T1 sequence (Q92633 whole entry): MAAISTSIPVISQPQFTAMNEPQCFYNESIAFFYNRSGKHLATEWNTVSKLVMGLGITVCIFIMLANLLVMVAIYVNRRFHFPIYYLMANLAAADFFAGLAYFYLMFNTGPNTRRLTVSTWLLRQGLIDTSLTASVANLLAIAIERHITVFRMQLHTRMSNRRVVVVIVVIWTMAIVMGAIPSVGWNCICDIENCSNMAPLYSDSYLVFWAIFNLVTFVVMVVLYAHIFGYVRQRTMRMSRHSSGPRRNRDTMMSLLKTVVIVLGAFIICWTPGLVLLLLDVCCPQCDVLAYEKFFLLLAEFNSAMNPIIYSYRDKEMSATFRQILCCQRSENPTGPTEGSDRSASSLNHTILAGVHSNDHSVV

SMILES	inhibition [1] [%]	IC50 [2] [nM]	CC50 at 48 h [3] [nM]
CC(C)OCc1c(-c2ccc(O[C@H]3CCC[C@H](C(=O)O)C3)cc2)nnn1C (racemic) [Compound 22, (+/−)-(1S,3S)-3-(4-(5-(isopropoxymethyl)-1-methyl-1H-1,2,3-triazol-4-yl)phenoxy)cyclohexane-1-carboxylic acid]	30 to 50	50 to 300	> 200000
Cn1nnc(-c2ccc(O[C@H]3CCC[C@H](C(=O)O)C3)cc2)c1NCc1ccccc1 (racemic) [Compound 24, (+/−)-(1S,3S)-3-(4-(5-(benzylamino)-1-methyl-1H-1,2,3-triazol-4-yl)phenoxy) cyclohexane-1-carboxylate]	0 to 30	300 to 10000	> 200000
Cc1nnn(-c2ccc(O[C@H]3CCC[C@H](C(=O)O)C3)cc2)c1N(C)C(=O)OC1CCCC1 (racemic) [Compound 34]	–	300 to 10000	–
CN(Cc1ccccc1)C(=O)OCc1c(-c2ccc(O/C=C/C(=O)O)cc2)nnn1C [Compound 10, (E)-3-(4-(5-(((benzyl(methyl)carbamoyl)oxo)methyl)-1-methyl-1H-1,2,3-triazol-4-yl)phenoxy)acrylic acid]	30 to 50	50 to 300	> 200000
Cn1nnc(-c2ccc(O[C@H]3CCC[C@H](C(=O)O)C3)cc2)c1CNC(=O)/C=C/c1ccccc1 (racemic) [Compound 5]	0 to 30	300 to 10000	> 200000
Cn1nnc(-c2ccc(O[C@H]3CCC[C@H](C(=O)O)C3)cc2)c1CS(=O)(=O)NC1CCCC1 (racemic) [Compound 33]	–	300 to 10000	–
Cn1nnc(-c2ccc(O[C@H]3CCC[C@H](C(=O)O)C3)c(C(F)(F)F)n2)c1C1CN(C2CCCC2)C(=O)O1 (some centres unmarked) [Compound 29]	0 to 30	300 to 10000	> 200000
CN(Cc1ccccc1)C(=O)OCc1c(-c2ccc(O[C@H]3CCC[C@H](C(=O)O)C3)o2)nnn1C (racemic) [Compound 12]	0 to 30	300 to 10000	> 200000
CN(Cc1ccccc1)C(=O)OCc1c(C2CC2O[C@H]2CCC[C@H](C(=O)O)C2)nnn1C (mixture of isomers) [Compound 32]	–	300 to 10000	–
CN(C(=O)NCc1c(-c2ccc(O[C@H]3CCC[C@H](C(=O)O)C3)cc2)nnn1C)C1CCCC1 (racemic) [Compound 30, (+/−)-(1S,3S)-3-(4-(5-((3-cyclopentyl-3-methylureido)methyl)-1-methyl-1H-1,2,3-triazol-4-yl)phenoxy)cyclohexane-1-carboxylic acid]	30 to 50	50 to 300	> 200000
Cn1nnc(-c2ccc(O[C@H]3CCC[C@H](C(=O)O)C3)cc2)c1Cn1ccn(Cc2ccccc2)c1=O (racemic) [Compound 16, (+/−)-(1S,3S)-3-(4-(5-((3-benzyl-2-carbonyl-2,3-dihydro-1H-imidazol-1-yl)methyl)-1-methyl-1H-1,2,3-triazol-4-yl)phenoxy)cyclohexane-1-carboxylic acid]	30 to 50	300 to 10000	> 200000
CN(Cc1ccccc1)C(=O)NCc1c(-c2ccc(O[C@H]3CCC[C@H](C(=O)O)C3)cc2)nnn1C (racemic) [Compound 1]	30 to 50	50 to 300	> 200000
CN(C(=O)Cc1c(-c2ccc(O[C@H]3CCC[C@H](C(=O)O)C3)cc2)nnn1C)C1CCCC1 (racemic) [Compound 19]	0 to 30	50 to 300	> 200000
Cn1nnc(-c2ccc(O[C@H]3CCC[C@H](C(=O)O)C3)cc2)c1COCc1ccccc1 (racemic) [Compound 23, (+/−)-(1S,3S)-3-(4-(5-((benzyloxy)methyl)-1-methyl-1H-1,2,3-triazol-4-yl)phenoxy)cyclohexane-1-carboxylic acid]	30 to 50	50 to 300	> 200000
Cn1nnc(-c2ccc(O[C@H]3CCC[C@H](C(=O)O)C3)cc2)c1CNc1ncc(C2CCCC2)o1 (racemic) [Compound 38]	–	300 to 10000	–
CN(Cc1c(-c2ccc(O[C@H]3CCC[C@H](C(=O)O)C3)cc2)nnn1C)C(=O)OCc1ccccc1 [Compound 14, (1S,3S)-3-(4-(5-((((benzyloxy)carbonyl)(methyl)amino)methyl)-1-methyl-1H-1,2,3-triazol-4-yl)phenoxy)cyclohexane-1-carboxylic acid]	30 to 50	50 to 300	> 200000
Cc1ncc(-c2c(-c3ccc(O[C@H]4CCC[C@H](C(=O)O)C4)cc3)nnn2C)o1 (racemic) [Compound 15, (+/−)-(1S,3S)-3-(4-(1-methyl-5-(2-methyloxazol-5-yl)-1H-1,2,3-triazol-4-yl)phenoxy) cyclohexane-1-carboxylic acid]	30 to 50	300 to 10000	> 200000
Cn1nnc(-c2ccc(O[C@H]3CCC[C@H](C(=O)O)C3)cc2)c1NCC1CCCC1 (racemic) [Compound 36]	–	300 to 10000	–
CN(C(=O)OCc1c(-c2ccc(O[C@H]3CCC[C@H](C(=O)O)C3)cc2)nnn1C1CC1)C1CCCC1 [Compound 35]	–	300 to 10000	–
Cn1nnc(-c2ccc(O[C@H]3CCC[C@H](C(=O)O)C3)cc2)c1CNC(=O)Cc1ccccc1 [Compound 4, (1S,3S)-3-((4-(5-(2-N-phenylacetamido))-1-methyl-1H-1,2,3-triazol-4-yl)-phenoxy)cyclohexane-1-carboxylic acid]	30 to 50	50 to 300	> 200000
Cn1nnc(-c2ccc(O[C@H]3CCC[C@H](C(=O)O)C3)cc2)c1CNC(=O)C1CCCC1 (racemic) [Compound 20, (+/−)-(1S,3S)-3-(4-(5-(cyclopentanecarboxamido<oxalylamino>methyl)-1-methyl-1H-1,2,3-triazol-4-yl)phenoxy)cyclohexane-1-carboxylate]	30 to 50	50 to 300	> 200000
Cn1nnc(-c2ccc(O[C@H]3CCC[C@H](C(=O)O)C3)cc2)c1C1CN(Cc2ccccc2)C(=O)O1 (stereo partly drawn) [Compound 9, (1S,3S)-3-(4-(5-(3-benzyl-2-carbonyloxazolidin-5-yl)-1-methyl-1H-1,2,3-triazol-4-yl)phenoxy)cyclohexane-1-carboxylic acid]	30 to 50	50 to 300	> 200000
Cn1nnc(-c2ccc(O[C@H]3CCC[C@H](C(=O)O)C3)c(C(F)(F)F)n2)c1CNC(=O)OC1CCCC1 (racemic) [Compound 28, (+/−)-(1S,3S)-3-((6-(5-((((cyclopentyloxy)carbonyl)amino)methyl)-1-methyl-1H-1,2,3-triazol-4-yl)-2-(trifluoromethyl)pyridin-3-yl)oxo)cyclohexane-1-carboxylic acid]	50 to 70	50 to 300	> 200000
Cn1nnc(C#CO[C@H]2CCC[C@H](C(=O)O)C2)c1COc1nccc(C2CC2)n1 (racemic) [Compound 39]	–	≤ 50	–
Cn1nnc(-c2ccc(O[C@H]3CCC[C@H](C(=O)O)C3)cc2)c1NC(=O)Cc1ccccc1 (racemic) [Compound 37]	–	300 to 10000	–

From patent US12378204B2, “Triazole compounds and preparation method therefor and use thereof” (WUHAN LL SCIENCE AND TECHNOLOGY DEVELOPMENT CO., LTD., priority 2019, dated 2025)
